In patent US11427553B2, “Dihydrooxadiazinones” (Bayer Aktiengesellschaft, priority 2017, dated 2022) one finds IC50 data, which are given here for 31 compounds.

In this assay the test system is HeLa cells. Put plainly: Assay 1 cell proliferation measurement (CTG, 72 h), HeLa. The format is cell-based, human. The note with it: Homo sapiens, HeLa; Assay 1, 72 h, Cell Titer Glo; read-out: HeLa IC50 [nM] (Cervical cancer). As to the method: Cell Proliferation Measurement
The antiproliferative activity of the compounds of the general formula (I) was examined in vitro in human cancer cells. For this purpose, the appropriate number of cells (Hela: 800; SK-MEL-3: 1000; A549: 800) were plated in 384-well plates with appropriate growth medium ((A549: DMEM/Ham's F12 (Biochrom; #FG 4815 with stabile Glutamine), FCS 10% final (Biochrom; #S 0415); Hela: DMEM/Ham's F12 (Biochrom; #FG 4815 with stabile Glutamine), FCS 10% final (Biochrom; #S 0415); SK-MEL-3: McCoy's 5A (Biochrom; #F 1015), FCS 10% final (Biochrom; #S 0415), L-Alanyl-L-Glutamine final: 2 mM, (Biochrom; #K 0302)) and incubated at 37° C. overnight. After 24 h, cells on one plate (0 h plate) were treated with 30 μl/cavity of CTG solution (Promega Cell Titer Glo (catalogue #G755B and G756B)) and incubated at room temperature for 10 min, and luminescence was measured by means of a VICTOR V (Perkin Elmer), in order to determine cell viability on commencement of treatment. The cells on the test plate were treated with the compounds of the general formula (I) as and incubated at 37° C. for 72 h. The compounds were added to the cells by means of an HP D300 digital dispenser in a 10-step 2.5-fold dilution series generally starting at a maximum final drug concentration of 100 nM. As control, the cells were treated with vehicle (DMSO at 0.3% final concentration). After 72 h, the cells were treated with 30 μl/cavity of CTG solution (Promega Cell Titer Glo (catalogue #G755B and G756B)) and incubated at room temperature for 10 min. and luminescence was measured by means of a VICTOR V (Perkin Elmer), in order to determine cell viability at the end of treatment. The percentage effect on cell growth and the IC50 derived therefrom were determined for each test substance using the values from the 0 h plate […] and the DMSO control […]. The IC50 values were calculated using a 4-parameter fit.
(In ATP-based viability assays light output follows the ATP content of the culture.)
Take `O=C1NN=C(c2ccc(NCCCn3ccnc3)c(C(F)(F)F)c2)CO1` [Example 282, 5-[4-{[3-(1H-imidazol-1-yl)propyl]amino}-3-(trifluoromethyl)phenyl]-3,6-dihydro-2H-1,3,4-oxadiazin-2-one]: the IC50 is 13 nM.
On to `CN(CC(C)(C)O)c1ccc(C2=NNC(=O)OC2)cc1C(F)(F)F` [Example 283, 5-{4-[(2-hydroxy-2-methylpropyl)(methyl)amino]-3-(trifluoromethyl)phenyl}-3,6-dihydro-2H-1,3,4-oxadiazin-2-one], for which the half-maximal inhibitory concentration (IC50) is 13 nM.
For the compound `O=C1NN=C(c2ccc(N3CCC4(CCOC4)C3)c(C(F)(F)F)c2)CO1` (stereo not shown) [Example 284, 5-[4-(2-oxa-7-azaspiro[4.4]nonan-7-yl)-3-(trifluoromethyl)phenyl]-3,6-dihydro-2H-1,3,4-oxadiazin-2-one], the IC50 was 14 nM.
As to `CCCC(CO)Nc1ccc(C2=NNC(=O)OC2)cc1C(F)(F)F` (stereo not shown) [Example 285, 5-{4-[(1-hydroxypentan-2-yl)amino]-3-(trifluoromethyl)phenyl}-3,6-dihydro-2H-1,3,4-oxadiazin-2-one], the IC50 was 14 nM.
`Cn1ccc(CNc2ccc(C3=NNC(=O)OC3)cc2C(F)(F)F)n1` [Example 286, 5-[4-{[(1-methyl-1H-pyrazol-3-yl)methyl]amino}-3-(trifluoromethyl)phenyl]-3,6-dihydro-2H-1,3,4-oxadiazin-2-one]: the IC50 amounted to 23 nM.
The same measure for `NC(=O)C1CN(c2ccc(C3=NNC(=O)OC3)cc2C(F)(F)F)C1` [Example 287, 1-[4-(2-oxo-3,6-dihydro-2H-1,3,4-oxadiazin-5-yl)-2-(trifluoromethyl)phenyl]azetidine-3-carboxamide]: 23 nM; for `O=C1NN=C(c2ccc(NCc3cccnc3)c(C(F)(F)F)c2)CO1` [Example 288, 5-[4-{[(pyridin-3-yl)methyl]amino}-3-(trifluoromethyl)phenyl]-3,6-dihydro-2H-1,3,4-oxadiazin-2-one]: 26 nM.
`CN(c1ccc(C2=NNC(=O)OC2)cc1C(F)(F)F)C1CCC(O)CC1` (stereo not shown) [Example 289, 5-{4-[(4-hydroxycyclohexyl)(methyl)amino]-3-(trifluoromethyl)phenyl}-3,6-dihydro-2H-1,3,4-oxadiazin-2-one]: the IC50 was 26 nM.
On to `O=C1CCC(CNc2ccc(C3=NNC(=O)OC3)cc2C(F)(F)F)N1` (stereo not shown) [Example 290, 5-[4-{[(5-oxopyrrolidin-2-yl)methyl]amino}-3-(trifluoromethyl)phenyl]-3,6-dihydro-2H-1,3,4-oxadiazin-2-one], for which the half-maximal inhibitory concentration (IC50) was found to be 32 nM.
`O=C1NN=C(c2ccc(NCCc3cnc[nH]3)c(C(F)(F)F)c2)CO1` [Example 291, 5-[4-{[2-(1H-imidazol-5-yl)ethyl]amino}-3-(trifluoromethyl)phenyl]-3,6-dihydro-2H-1,3,4-oxadiazin-2-one]: the IC50 came to 35 nM.
With `C[C@@H](O)[C@@H](CO)Nc1ccc(C2=NNC(=O)OC2)cc1C(F)(F)F` [Example 292, 5-[4-{[(2R,3R)-1,3-dihydroxybutan-2-yl]amino}-3-(trifluoromethyl)phenyl]-3,6-dihydro-2H-1,3,4-oxadiazin-2-one], the IC50 worked out at 43 nM.
For the compound `CC(C)C[C@H](CO)Nc1ccc(C2=NNC(=O)OC2)cc1C(F)(F)F` [Example 293, 5-[4-{[(2R)-1-hydroxy-4-methylpentan-2-yl]amino}-3-(trifluoromethyl)phenyl]-3,6-dihydro-2H-1,3,4-oxadiazin-2-one], the IC50 was found to be 43 nM.
In the case of `O=C1NN=C(c2ccc(NCC3CCOCC3)c(C(F)(F)F)c2)CO1` [Example 294, 5-[4-{[(oxan-4-yl)methyl]amino}-3-(trifluoromethyl)phenyl]-3,6-dihydro-2H-1,3,4-oxadiazin-2-one], the IC50 stood at 45 nM.
To `Cn1ccnc1CNc1ccc(C2=NNC(=O)OC2)cc1C(F)(F)F` [Example 295, 5-[4-{[(1-methyl-1H-imidazol-2-yl)methyl]amino}-3-(trifluoromethyl)phenyl]-3,6-dihydro-2H-1,3,4-oxadiazin-2-one] belongs 47 nM; to `O=C1NN=C(c2ccc(NC(C3CC3)C3CC3)c(C(F)(F)F)c2)CO1` [Example 296, 5-{4-[(dicyclopropylmethyl)amino]-3-(trifluoromethyl)phenyl}-3,6-dihydro-2H-1,3,4-oxadiazin-2-one], 59 nM.
Consider `O=C1NN=C(c2ccc(NCCn3ccnn3)c(C(F)(F)F)c2)CO1` [Example 297, 5-[4-{[2-(1H-1,2,3-triazol-1-yl)ethyl]amino}-3-(trifluoromethyl)phenyl]-3,6-dihydro-2H-1,3,4-oxadiazin-2-one], for which the IC50 turned out to be 59 nM.
Regarding `CC1(CNc2ccc(C3=NNC(=O)OC3)cc2C(F)(F)F)CCOCC1` [Example 298, 5-[4-{[(4-methyloxan-4-yl)methyl]amino}-3-(trifluoromethyl)phenyl]-3,6-dihydro-2H-1,3,4-oxadiazin-2-one], the IC50 was 62 nM.
For the compound `O=C1NN=C(c2ccc(NCc3cncnc3)c(C(F)(F)F)c2)CO1` [Example 299, 5-[4-{[(pyrimidin-5-yl)methyl]amino}-3-(trifluoromethyl)phenyl]-3,6-dihydro-2H-1,3,4-oxadiazin-2-one], the concentration for half-maximal inhibition (IC50) was determined as 69 nM.
The same measure for `Cn1cc(CNc2ccc(C3=NNC(=O)OC3)cc2C(F)(F)F)cn1` [Example 300, 5-[4-{[(1-methyl-1H-pyrazol-4-yl)methyl]amino}-3-(trifluoromethyl)phenyl]-3,6-dihydro-2H-1,3,4-oxadiazin-2-one]: 90 nM; for `CN1CCCC(Nc2ccc(C3=NNC(=O)OC3)cc2C(F)(F)F)CC1` (stereo not shown) [Example 301, 5-{4-[(1-methylazepan-4-yl)amino]-3-(trifluoromethyl)phenyl}-3,6-dihydro-2H-1,3,4-oxadiazin-2-one]: greater than 100 nM; for `CC1CN(C)CCN(c2ccc(C3=NNC(=O)OC3)cc2C(F)(F)F)C1` (stereo not shown) [Example 302, 5-[4-(4,6-dimethyl-1,4-diazepan-1-yl)-3-(trifluoromethyl)phenyl]-3,6-dihydro-2H-1,3,4-oxadiazin-2-one]: greater than 100 nM.
For the compound `CNC(=O)CCNc1ccc(C2=NNC(=O)OC2)cc1C(F)(F)F` [Example 303, N-methyl-N^3-[4-(2-oxo-3,6-dihydro-2H-1,3,4-oxadiazin-5-yl)-2-(trifluoromethyl)phenyl]-beta-alaninamide], the IC50 was greater than 100 nM.
`CNC(=O)C1CCCN1c1ccc(C2=NNC(=O)OC2)cc1C(F)(F)F` (stereo not shown) [Example 304, N-methyl-1-[4-(2-oxo-3,6-dihydro-2H-1,3,4-oxadiazin-5-yl)-2-(trifluoromethyl)phenyl]prolinamide]: the IC50 was greater than 100 nM.
For the compound `CN1CC(CNc2ccc(C3=NNC(=O)OC3)cc2C(F)(F)F)CC1=O` (stereo not shown) [Example 305, 5-[4-{[(1-methyl-5-oxopyrrolidin-3-yl)methyl]amino}-3-(trifluoromethyl)phenyl]-3,6-dihydro-2H-1,3,4-oxadiazin-2-one], the IC50 was greater than 100 nM.
On to `CCNC(=O)CNc1ccc(C2=NNC(=O)OC2)cc1C(F)(F)F` [Example 306, ethyl-N^2-[4-(2-oxo-3,6-dihydro-2H-1,3,4-oxadiazin-5-yl)-2-(trifluoromethyl)phenyl]glycinamide], for which the IC50 was greater than 100 nM.
For `CN(C)C(=O)CNc1ccc(C2=NNC(=O)OC2)cc1C(F)(F)F` [Example 307, N,N-dimethyl-N^2-[4-(2-oxo-3,6-dihydro-2H-1,3,4-oxadiazin-5-yl)-2-(trifluoromethyl)phenyl]glycinamide], the IC50 is greater than 100 nM.
In the case of `O=C1NN=C(c2ccc(NCc3cccnn3)c(C(F)(F)F)c2)CO1` [Example 308, 5-[4-{[(pyridazin-3-yl)methyl]amino}-3-(trifluoromethyl)phenyl]-3,6-dihydro-2H-1,3,4-oxadiazin-2-one], the IC50 was greater than 100 nM.
The same measure for `CN1CCC(Nc2ccc(C3=NNC(=O)OC3)cc2C(F)(F)F)CC1` [Example 309, 5-{4-[(1-methylpiperidin-4-yl)amino]-3-(trifluoromethyl)phenyl}-3,6-dihydro-2H-1,3,4-oxadiazin-2-one]: greater than 100 nM; for `CN(C)C1CCN(c2ccc(C3=NNC(=O)OC3)cc2C(F)(F)F)C1` (stereo not shown) [Example 310, 5-{4-[3-(dimethylamino)pyrrolidin-1-yl]-3-(trifluoromethyl)phenyl}-3,6-dihydro-2H-1,3,4-oxadiazin-2-one]: greater than 100 nM.
To `CC1CC(Nc2ccc(C3=NNC(=O)OC3)cc2C(F)(F)F)CCN1` (stereo not shown) [Example 311, 5-{4-[(2-methylpiperidin-4-yl)amino]-3-(trifluoromethyl)phenyl}-3,6-dihydro-2H-1,3,4-oxadiazin-2-one] belongs greater than 100 nM; to `O=C1NN=C(c2ccc(NCCCn3cnnc3)c(C(F)(F)F)c2)CO1` [Example 312, 5-[4-{[3-(4H-1,2,4-triazol-4-yl)propyl]amino}-3-(trifluoromethyl)phenyl]-3,6-dihydro-2H-1,3,4-oxadiazin-2-one], greater than 100 nM.

One may read the IC50 as the midpoint of a concentration-inhibition curve.
